For 46 molecules, Kd results are on record in US20250333409A1, “Compound and use thereof in preparation of BCL-XL inhibitor” (Hitgen Inc., priority 2022, published 2025).

Structures are written as SMILES.

BCL-XL, sequence (Q07817 whole entry): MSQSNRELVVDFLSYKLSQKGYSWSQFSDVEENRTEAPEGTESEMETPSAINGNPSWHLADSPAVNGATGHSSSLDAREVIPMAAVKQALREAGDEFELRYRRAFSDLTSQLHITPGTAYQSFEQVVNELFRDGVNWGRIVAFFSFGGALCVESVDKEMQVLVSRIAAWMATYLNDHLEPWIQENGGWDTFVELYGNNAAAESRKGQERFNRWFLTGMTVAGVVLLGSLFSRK

The assay addresses BCL-XL (Homo sapiens (Human), UniProt Q07817). The assay is described as follows: BCL-XL surface plasmon resonance (SPR) binding experiment. Conditions: 25° C., steady state affinity model (1:1 binding), BCL-XL fixed on NTA chip. As for the experimental part:
Experimental Example 1. BCL-XL Surface Plasmon Resonance (SPR) Binding Experiment
Preparation of running buffer: The compositions of protein fixation buffer and running buffer A were the same, in which the concentration of NaH2PO4 was 10 mM, the concentration of Na2HPO4 was 40 mM, the concentration of NaCl was 150 mM, the content of Tween 20 was 0.03%, and the pH was adjusted to 7.4; in running buffer B, the concentration of NaH2OP4 was 10 mM, the concentration of Na2HOP4 was 40 mM, the concentration of NaCl was 150 mM, the content of Tween 20 was 0.03%, the content of DMSO was […], and the pH was adjusted to 7.4. After the running buffers were prepared, they were filtered with 0.22 μm filter membrane.
BCL-XL protein fixation: The protein fixation buffer was used to fix BCL-XL on NTA chip through His capture and amino coupling. The NTA chip surface was washed with 50 mM NaOH and 350 mM EDTA at a flow rate of 60.0 μL/min for 60 seconds, respectively; then activated with 10 mM NiCl2 for 1100 seconds, and then activated with a mixture of EDC (75.00 mg/mL) and NHS (11.50 mg/mL) with a volume ratio of 1:1 for 650 seconds at an activation flow rate of 10.0 μL/min; then BCL-XL (0.04 mg/mL) was injected at 4.0 μL/min for 850 seconds. After the BCL-XL injection was completed, a mixture of EDC (75.00 mg/mL) and NHS (11.50 mg/mL) with a volume ratio of 1:1 was used for cross-linking at a rate of 10.0 μL/min for 200 seconds, and finally 1 M ethanolamine (pH 8.5) was injected at a rate of 6.0 μL/min for 7 minutes to block the chip surface.
Compound dilution: The test compound was diluted with 100% DMSO to 100 times the required final concentration, after mixing well, 4.0 μL was pipetted and added to 396 μL of the running buffer A, centrifuged at 15000 rpm for 5 minutes, to obtain a 1× compound solution containing 1% DMSO for subsequent dilution. The compound to be tested was diluted gradiently by 2-fold dilution from 50 μM to 9 concentrations (the 2-fold dilution was carried out by adding 200 μL of the compound solution to 200 μL of the running buffer B, 10 concentration gradients comprised one 0 concentration (using the running buffer B instead), and the starting concentration was 50 μM). The diluted compound was transferred to a 96-well plate for sample injection.
After 8 injections of the running buffer B to complete equilibrium, the compound was injected from the lowest concentration to the highest concentration, and the association time and dissociation time were both 120 seconds. After each injection, the injection needle was washed with 50% DMSO. The solvent difference caused by DMSO was corrected with 0.50%, 0.75%, 1.00%, 1.25% and 1.50% DMSO.
The response value of the compound to bind to BCL-XL protein was analyzed after deducting the reference channel and 0 concentration, and the affinity Kd was fitted by Biacore T200 Evaluation Software using the steady state affinity model (1:1 binding model).
`O=C(c1ccc(COc2ccccc2)cc1)N1CCc2c(O)nc(-c3cnc4ccccc4c3)nc2C1` [Compound B2] had a dissociation constant (Kd) of 0.1 to 1 µM. The figure for `CNc1nc(-c2cnc3ccccc3c2)nc2c1CCN(C(=O)c1ccc(COc3ccc(C#CCN4CCN(C)CC4)cc3F)cc1)C2` [Compound D4] is less than 0.1 µM; for `CNc1nc(-c2cccc(NS(C)(=O)=O)c2)nc2c1CN(Cc1ccc(Cl)cn1)C2` [Compound E9] it is 10 to 100 µM; for `CN1CCN(CC#Cc2ccc(OCc3ccc(C(=O)N4CCc5cnc(-c6cnc7ccccc7c6)nc5C4)cc3)cn2)CC1` [Compound C7] it is less than 0.1 µM. Next, `CNc1nc(-c2cnc3ccccc3c2)nc2c1CCN(C(=O)c1ccc(C(=O)Nc3ccccc3)cc1)C2` [Compound A16]: 10 to 100 µM; `CCc1ccc(-c2cc(C(=O)N3CCc4c(nc(-c5cnc6ccccc6c5)nc4NC)C3)[nH]n2)cc1` [Compound 7A]: 10 to 100 µM. Molecule `CN(C)c1nc(-c2cnc3ccccc3c2)nc2c1CCN(C(=O)c1ccc(COc3ccccc3)cc1)C2` [Compound A2] returned a Kd of 0.1 to 1 µM. The figure for `O=C(c1ccc(COc2ccccc2)cc1)N1CCc2ccc(-c3cc4cccnc4[nH]3)cc2C1` [Compound F6] is 10 to 100 µM; for `CC(C)(C)OC(=O)N1CCN(CC#Cc2ccc(OC(F)(F)c3ccc(C(=O)N4CCc5cnc(-c6cnc7ccccc7c6)nc5C4)cc3)cc2)CC1` [Compound C9] it is 10 to 100 µM; for `O=C(c1ccc(COc2ccccc2)cc1)N1CCc2nc(NS(=O)(=O)c3ccccc3)ncc2C1` [Compound C12] it is 10 to 100 µM. The figure for `CNc1nc(-c2ccc(C(=O)Nc3ccccc3)cc2)nc2c1CN(Cc1ccc(Cl)cn1)C2` [Compound E7] is 10 to 100 µM. The figure for `CN(C)CC#Cc1ccc(OCc2ccc(C(=O)N3CCc4cnc(-c5cnc6ccccc6c5)nc4C3)cc2)cc1` [Compound C6] is less than 0.1 µM; for `CN1CCC(c2ccc(OCc3ccc(C(=O)N4CCc5cnc(-c6cnc7ccccc7c6)nc5C4)cc3)cc2)CC1` [Compound C4] it is 1 to 10 µM. `CNC(=O)c1ccc(OCc2ccc(C(=O)N3CCc4cnc(-c5cnc6ccccc6c5)nc4C3)cc2)cc1` [Compound C2] had a dissociation constant Kd of less than 0.1 µM. On to `CNC(=O)CCCc1ccc(-c2cc(C(=O)N3CCc4cnc(-c5cnc6ccccc6c5)nc4C3)n[nH]2)cc1` [Compound C10], for which the equilibrium dissociation constant (Kd) fell in the range of 0.1 to 1 µM. `CC(C)(C)c1ccc(-c2cc(C(=O)N3CCc4nc(Nc5nc6ccccc6s5)ccc4C3)[nH]n2)cc1` [Compound 1E]: the equilibrium dissociation constant (Kd) lay within 10 to 100 µM. The molecule `CNc1nc(-c2cnc3ccccc3c2)nc2c1CN(c1nc(C(=O)O)cs1)C2` [Compound E1] showed a Kd of 10 to 100 µM. Next, `CC(C)(C)c1ccc(-c2cc(C(=O)N3CCc4cnc(-c5cnc6ccccc6c5)nc4C3)[nH]n2)cc1` [Compound 1C]: 0.1 to 1 µM. Next, `CNc1nc(-c2cnc3ccccc3c2)nc2c1CCN(C(=O)c1ccc(COc3ccc(C#CCN(C)C)cc3)cc1)C2` [Compound D1]: less than 0.1 µM; `CNC(=O)C(C)(C)c1ccc(-c2cc(C(=O)N3CCc4c(nc(-c5cnc6ccccc6c5)nc4NC)C3)[nH]n2)cc1` [Compound 4A]: 0.1 to 1 µM. `CNc1nc(-c2cnc3ccccc3c2)nc2c1CCN(C(=O)c1ccc(COc3ccc(C#CCN(C)C)cc3C)cc1)C2` [Compound D2] showed a Kd of 0.1 to 1 µM.

For `O=C(c1ccc(COc2ccccc2)cc1)N1CCc2cnc(-c3cnc4ccccc4c3)nc2C1` [Compound C1], the dissociation constant (Kd) lay in the range of 0.1 to 1 µM. Next, `CNc1nc(-c2cnc3ccccc3c2)nc2c1CN(c1cccc(C(=O)O)n1)CC2` [Compound A27]: 10 to 100 µM. The figure for `CNc1nc(-c2cnc3ccccc3c2)nc2c1CCN(C(=O)c1ccc(COc3ccc(C#CCN(C)C)cc3F)cc1)C2` [Compound D3] is less than 0.1 µM.

Molecule `CNc1nc(-c2cnc3ccccc3c2)nc2c1CCN(C(=O)c1cc(-c3ccc(C4CCNCC4)cc3)[nH]n1)C2` [Compound 1B] returned a dissociation constant (Kd) of 1 to 10 µM. Next, `CNc1nc(-c2cnc3ccccc3c2)nc2c1CCN(C(=O)c1cc(-c3ccc(C(C)(C)CNC(C)=O)cc3)n[nH]1)C2` [Compound 3A]: less than 0.1 µM. `O=C(c1ccc(COc2ccccc2)cc1)N1CCc2nc(Nc3nc4ccccc4s3)ccc2C1` [Compound C14] showed a dissociation constant Kd of 10 to 100 µM.

Molecule `CS(=O)(=O)Nc1ncc2c(n1)CCN(C(=O)c1ccc(COc3ccccc3)cc1)C2` [Compound C11] had a Kd of 10 to 100 µM. Next, `CNC(=O)c1ccc(-c2cc(C(=O)N3CCc4c(nc(-c5cnc6ccccc6c5)nc4NC)C3)n[nH]2)cc1` [Compound 6A]: 1 to 10 µM. In turn, `CNc1nc(-c2cnc3ccccc3c2)nc2c1CCN(C(=O)c1ccc(COc3ccccc3)cc1)C2` [Compound A1] came in with a Kd of 0.1 to 1 µM. Next, `CNc1nc(-c2cnc3ccccc3c2)nc2c1CCN(C(=O)c1cc(-c3ccc(C4CCN(C)CC4)cc3)[nH]n1)C2` [Compound 3B]: 10 to 100 µM; `CCNC(=O)c1ccc(-c2nc3c(c(NC)n2)CCN(C(=O)c2ccc(COc4ccccc4)cc2)C3)cn1` [Compound A4]: 1 to 10 µM; `CNc1nc(-c2cnc3ccccc3c2)nc2c1CCN(C(=O)c1cc(-c3ccc(C4CC[N+](C)(C)CC4)cc3)[nH]n1)C2` [Compound 2B]: 1 to 10 µM. Next, `CNc1nc(-c2cnc3ccccc3c2)nc2c1CCN(C(=O)c1cc(-c3ccc(C(C)(C)CNC(=O)OC(C)(C)C)cc3)n[nH]1)C2` [Compound 1A]: 0.1 to 1 µM; `CNc1nc(-c2cnc3ccccc3c2)nc2c1CCN(C(=O)c1cc(-c3ccc(C(C)(C)CN4CCNCC4)cc3)n[nH]1)C2` [Compound 5A]: 0.1 to 1 µM; `COc1nc(-c2cnc3ccccc3c2)nc2c1CCN(C(=O)c1ccc(COc3ccccc3)cc1)C2` [Compound B1]: 0.1 to 1 µM. Next, `CN1CCN(CC#Cc2ccc(OCc3ccc(C(=O)N4CCc5cnc(-c6cnc7ccccc7c6)nc5C4)cc3)nc2)CC1` [Compound C8]: 10 to 100 µM.

In turn, `CNc1nc(-c2cnc3ccccc3c2)nc2c1CCN(C(=O)c1ccc(COc3ccc(C#CCN4CCN(C)CC4)cc3C)cc1)C2` [Compound D5] had a Kd of 0.1 to 1 µM. Next, `C[C@@H](CNc1nc(-c2cnc3ccccc3c2)nc2c1CCN(C(=O)c1ccc(COc3ccccc3)cc1)C2)c1ccccc1` [Compound A3]: 1 to 10 µM; `CNc1nc(-c2cc(C)[nH]n2)nc2c1CCN(C(=O)c1ccc(COc3ccccc3)cc1)C2` [Compound A9]: 10 to 100 µM.

With `CNc1nc(-c2cnc3ccccc3c2)nc2c1CCN(C(=O)c1ccc(C(=O)O)cc1)C2` [Compound A15], the equilibrium dissociation constant (Kd) lay in the range of 10 to 100 µM.

Turning to `CNc1nc(-c2cnc3ccccc3c2)nc2c1CCN(C(=O)c1cccc(C(=O)O)c1)C2` [Compound A14], the Kd lay in the range of 10 to 100 µM. In turn, `CNc1nc(-c2cnc3ccccc3c2)nc2c1CCN(C(=O)c1ccc(/C=C/c3ccc(C#CCN4CCN(C)CC4)cc3)cc1)C2` [Compound D6] returned a dissociation constant Kd of less than 0.1 µM. The figure for `CNc1nc(-c2cc3ccccc3nc2O)nc2c1CCN(C(=O)c1ccc(COc3ccccc3)cc1)C2` [Compound A5] is 10 to 100 µM. The figure for `CNc1nc(-c2cnc3ccccc3c2)nc2c1CN(c1nc(C(=O)O)cs1)CC2` [Compound A21] is 10 to 100 µM; for `CNc1nc(-c2n[nH]c3ccccc23)nc2c1CCN(C(=O)c1ccc(COc3ccccc3)cc1)C2` [Compound A6] it is 10 to 100 µM.

For orientation: Kd means the free concentration of one partner at which half of the binding sites on the other are occupied at equilibrium, for simple one-to-one binding. Read a high Kd as weaker binding.
